In the supplement of paper PMC10307832:

Columns and labels:
Assay in all cases: relative viability (nuclei count vs DMSO), 5 days (fraction); higher = more cells survive
PC-14 = system: PC-14
In short: (§1)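 Medians of duplicate plates are given as relative viability. That measure is the nuclei count in treated wells divided by the count in vehicle wells. Counts were taken on 4× images of lung cancer cell lines in 1536-well plates, 5 days after pin-tool dosing the day after seeding with one drug alone or a fixed anchor-drug dose plus five library-drug doses (not always all listed) in √10 steps.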

ChaGo-K-1 = system: ChaGo-K-1
In short: as §1

NCI-H2170 = system: NCI-H2170
In short: as §1

NCI-H647 = system: NCI-H647
In short: as §1

HOP-62 = system: HOP-62
In short: as §1

RERF-LC-KJ = system: RERF-LC-KJ
In short: as §1

BEN = system: BEN
In short: as §1

LXF-289 = system: LXF-289
In short: as §1

NCI-H441 = system: NCI-H441
In short: as §1

LK-2 = system: LK-2
In short: as §1

SK-MES-1 = system: SK-MES-1
In short: as §1

NCI-H1993 = system: NCI-H1993
In short: as §1

NCI-H1355 = system: NCI-H1355
In short: as §1

NCI-H1944 = system: NCI-H1944
In short: as §1

NCI-H727 = system: NCI-H727
In short: as §1

EKVX = system: EKVX
In short: as §1

NCI-H661 = system: NCI-H661
In short: as §1

NCI-H1437 = system: NCI-H1437
In short: as §1

NCI-H2126 = system: NCI-H2126
In short: as §1

HCC-827 = system: HCC-827
In short: as §1

LOU-NH91 = system: LOU-NH91
In short: as §1

LCLC-103H = system: LCLC-103H
In short: as §1

NCI-H1666 = system: NCI-H1666
In short: as §1

CN1CCN(CCOc2cc(OC3CCOCC3)c3c(Nc4c(Cl)ccc5c4OCO5)ncnc3c2)CC1 [Saracatinib] + Nc1ncn([C@H]2C[C@H](O)[C@@H](CO)O2)c(=O)n1 [Decitabine] (partner 2 µM)
relative viability (PC-14; first compound 0.02 µM): 0.219 | relative viability (PC-14; first compound 0.2 µM): 0.182 | relative viability (PC-14; first compound 0.6325 µM): 0.158 | relative viability (PC-14; first compound 2 µM): 0.118 | relative viability (ChaGo-K-1; first compound 0.02 µM): 0.577 | relative viability (ChaGo-K-1; first compound 0.2 µM): 0.427 | relative viability (ChaGo-K-1; first compound 0.6325 µM): 0.579 | relative viability (ChaGo-K-1; first compound 2 µM): 0.542 | relative viability (NCI-H2170; first compound 0.02 µM): 0.453 | relative viability (NCI-H2170; first compound 0.2 µM): 0.412 | relative viability (NCI-H2170; first compound 0.6325 µM): 0.452 | relative viability (NCI-H2170; first compound 2 µM): 0.415 | relative viability (NCI-H647; first compound 0.02 µM): 0.438 | relative viability (NCI-H647; first compound 0.2 µM): 0.313 | relative viability (NCI-H647; first compound 0.6325 µM): 0.468 | relative viability (NCI-H647; first compound 2 µM): 0.433 | relative viability (HOP-62; first compound 0.02 µM): 0.222 | relative viability (HOP-62; first compound 0.2 µM): 0.188 | relative viability (HOP-62; first compound 0.6325 µM): 0.197 | relative viability (HOP-62; first compound 2 µM): 0.185 | relative viability (RERF-LC-KJ; first compound 0.02 µM): 0.688 | relative viability (RERF-LC-KJ; first compound 0.2 µM): 0.657 | relative viability (RERF-LC-KJ; first compound 0.6325 µM): 0.734 | relative viability (RERF-LC-KJ; first compound 2 µM): 0.722 | relative viability (BEN; first compound 0.02 µM): 0.834 | relative viability (BEN; first compound 0.2 µM): 0.778 | relative viability (BEN; first compound 0.6325 µM): 0.747 | relative viability (BEN; first compound 2 µM): 0.628 | relative viability (LXF-289; first compound 0.02 µM): 0.327 | relative viability (LXF-289; first compound 0.2 µM): 0.314 | relative viability (LXF-289; first compound 0.6325 µM): 0.387 | relative viability (LXF-289; first compound 2 µM): 0.36 | relative viability (NCI-H441; first compound 0.02 µM): 0.221 | relative viability (NCI-H441; first compound 0.2 µM): 0.232 | relative viability (NCI-H441; first compound 0.6325 µM): 0.212 | relative viability (NCI-H441; first compound 2 µM): 0.243 | relative viability (LK-2; first compound 0.02 µM): 0.337 | relative viability (LK-2; first compound 0.2 µM): 0.23 | relative viability (LK-2; first compound 0.6325 µM): 0.172 | relative viability (LK-2; first compound 2 µM): 0.201 | relative viability (SK-MES-1; first compound 0.02 µM): 0.353 | relative viability (SK-MES-1; first compound 0.2 µM): 0.352 | relative viability (SK-MES-1; first compound 0.6325 µM): 0.36 | relative viability (SK-MES-1; first compound 2 µM): 0.203 | relative viability (NCI-H1993; first compound 0.02 µM): 0.63 | relative viability (NCI-H1993; first compound 0.2 µM): 1.43 | relative viability (NCI-H1993; first compound 0.6325 µM): 0.521 | relative viability (NCI-H1993; first compound 2 µM): 0.556 | relative viability (NCI-H1355; first compound 0.02 µM): 0.345 | relative viability (NCI-H1355; first compound 0.2 µM): 0.35 | relative viability (NCI-H1355; first compound 0.6325 µM): 0.358 | relative viability (NCI-H1355; first compound 2 µM): 0.354 | relative viability (NCI-H1944; first compound 0.02 µM): 0.423 | relative viability (NCI-H1944; first compound 0.2 µM): 0.356 | relative viability (NCI-H1944; first compound 0.6325 µM): 0.434 | relative viability (NCI-H1944; first compound 2 µM): 0.371 | relative viability (NCI-H727; first compound 0.02 µM): 0.917 | relative viability (NCI-H727; first compound 0.2 µM): 0.894 | relative viability (NCI-H727; first compound 0.6325 µM): 0.992 | relative viability (NCI-H727; first compound 2 µM): 0.712 | relative viability (EKVX; first compound 0.02 µM): 0.346 | relative viability (EKVX; first compound 0.6325 µM): 0.323 | relative viability (EKVX; first compound 2 µM): 0.211 | relative viability (NCI-H661; first compound 0.02 µM): 0.563 | relative viability (NCI-H661; first compound 0.2 µM): 0.434 | relative viability (NCI-H661; first compound 0.6325 µM): 0.534 | relative viability (NCI-H661; first compound 2 µM): 0.403 | relative viability (NCI-H1437; first compound 0.02 µM): 0.608 | relative viability (NCI-H1437; first compound 0.2 µM): 0.601 | relative viability (NCI-H1437; first compound 0.6325 µM): 0.64 | relative viability (NCI-H1437; first compound 2 µM): 0.622 | relative viability (NCI-H2126; first compound 0.02 µM): 0.61 | relative viability (NCI-H2126; first compound 0.2 µM): 0.567 | relative viability (NCI-H2126; first compound 0.6325 µM): 0.551 | relative viability (NCI-H2126; first compound 2 µM): 0.454 | relative viability (HCC-827; first compound 0.02 µM): 0.359 | relative viability (HCC-827; first compound 0.2 µM): 0.225 | relative viability (HCC-827; first compound 0.6325 µM): 0.19 | relative viability (HCC-827; first compound 2 µM): 0.151 | relative viability (LOU-NH91; first compound 0.02 µM): 0.778 | relative viability (LOU-NH91; first compound 0.2 µM): 0.665 | relative viability (LOU-NH91; first compound 0.6325 µM): 0.715 | relative viability (LOU-NH91; first compound 2 µM): 0.641 | relative viability (LCLC-103H; first compound 0.02 µM): 0.774 | relative viability (LCLC-103H; first compound 0.2 µM): 0.653 | relative viability (LCLC-103H; first compound 0.6325 µM): 0.72 | relative viability (LCLC-103H; first compound 2 µM): 0.716 | relative viability (NCI-H1666; first compound 0.02 µM): 0.797 | relative viability (NCI-H1666; first compound 0.2 µM): 0.671 | relative viability (NCI-H1666; first compound 0.6325 µM): 0.846 | relative viability (NCI-H1666; first compound 2 µM): 0.756
